Measurements taken from patent US12508247B2, “Controlled release injectable ondansetron formulations” (SHILPA MEDICARE LIMITED, priority 2019, dated 2025).
Like-named read-outs stand apart in the source and are kept apart here.

Test: Fasting single dose PK study in dogs: plasma ondansetron after intravenous bolus of marketed ondansetron injection (reference)
Format: in vivo
Settings: fasted male Beagle dogs; for C0: 2 mg/mL solution; for Vd: read-out: Vss
Protocol: Male Beagle dogs were fasted are divided into six groups as G1, G2, G3, G4, G5 and G6 each consisting of four dogs.
Blood samples were collected from each IM route dogs at 0 (pre-dose), 0.5, 1, 2, 4, 8, 16, 24, 36, 48, 72, 96, 120, 144, 168 and 240 h post-dose; for IV route dogs, blood samples were collected at 0 (pre-dose), 0.167, 0.33, 0.5, 0.75, 1, 2, 4, 8, 12 and 24 h post-dose and analysed for ondansetron in plasma and calculated using the noncompartmental analysis tool of the validated Phoenix WinNonlin software (Version 8.0). The summary of plasma pharmacokinetics parameters of ondansetron for G1 and G2 animals is summarized in Table—2 (FIGS. 1, 2) and G3, G4, G5 and G6 (FIGS. 3, 4, 5 and 6) animals is summarized in Table— 3.

SMILES: Cc1nccn1CC1CCc2c(c3ccccc3n2C)C1=O (centres unmarked) [Ondansetron]
- C0 (G1, IV bolus 4 mg/dog): 0.11 µg/mL
- AUC(0-inf) (G1, IV bolus 4 mg/dog): 0.107 µg·h/mL
- AUC(0-t) (G1, IV bolus 4 mg/dog): 0.106 µg·h/mL
- MRT last (G1, IV bolus 4 mg/dog): 1.12 h
- clearance (G1, IV bolus 4 mg/dog): 644 mL/min
- half-life (G1, IV bolus 4 mg/dog): 0.878 h
- Vd (G1, IV bolus 4 mg/dog): 40.3 L
- C0 (G2, IV bolus 24 mg/dog): 0.828 µg/mL
- AUC(0-inf) (G2, IV bolus 24 mg/dog): 0.716 µg·h/mL
- AUC(0-t) (G2, IV bolus 24 mg/dog): 0.715 µg·h/mL
- MRT last (G2, IV bolus 24 mg/dog): 1.17 h
- clearance (G2, IV bolus 24 mg/dog): 563 mL/min
- half-life (G2, IV bolus 24 mg/dog): 1.28 h
- Vd (G2, IV bolus 24 mg/dog): 36.3 L
